Reference: PubChem BioAssay (NCI)
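Where inhibition never reached the appropriate level, the endpoint shown equals the highest concentration tested. Otherwise, values were interpolated linearly from a five-concentration, 48-hour dose response in 96-well plates. GI50 = concentration required for 50% inhibition of growth. The concentration for full growth arrest is given as TGI.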

How the values were obtained:
Assay in all cases: inhibition of tumour cell growth, NCI panel, 48 h
ACHN renal = test system: ACHN renal
COLO 205 colon = test system: COLO 205 colon
HCC-2998 colon = test system: HCC-2998 colon
HCT-116 colon = test system: HCT-116 colon
M14 melanoma = test system: M14 melanoma
MDA-MB-231 breast = test system: MDA-MB-231 breast
NCI/ADR-RES ovarian = test system: NCI/ADR-RES ovarian
OVCAR-4 ovarian = test system: OVCAR-4 ovarian
SR leukemia = test system: SR leukemia
UO-31 renal = test system: UO-31 renal

| SMILES | GI50 (ACHN renal) [µM] | TGI (ACHN renal) [µM] | GI50 (COLO 205 colon) [µM] | TGI (COLO 205 colon) [µM] | GI50 (HCC-2998 colon) [µM] | TGI (HCC-2998 colon) [µM] | GI50 (HCT-116 colon) [µM] | TGI (HCT-116 colon) [µM] | GI50 (M14 melanoma) [µM] | TGI (M14 melanoma) [µM] | GI50 (MDA-MB-231 breast) [µM] | TGI (MDA-MB-231 breast) [µM] | GI50 (NCI/ADR-RES ovarian) [µM] | TGI (NCI/ADR-RES ovarian) [µM] | GI50 (OVCAR-4 ovarian) [µM] | TGI (OVCAR-4 ovarian) [µM] | GI50 (SR leukemia) [µM] | TGI (SR leukemia) [µM] | GI50 (UO-31 renal) [µM] | TGI (UO-31 renal) [µM] |
| --- | --- | --- | --- | --- | --- | --- | --- | --- | --- | --- | --- | --- | --- | --- | --- | --- | --- | --- | --- | --- |
| COc1cc(NC(C)CCCN)c2nccc(C)c2c1OC (stereo not given) | 20.7 | 50.1 | 3.37 | 11.8 | 4.85 | 17.8 | 5 | 18.7 | 2.97 | 12.7 | 8.18 | 25.3 | 20.5 | 74.6 | 2.7 | 10.2 | 20.8 | 60.7 | 17.6 | 34.4 |
| CCN(CC)CCOc1ccc(/C(=C(\C)c2ccc(F)c(OC)c2)c2ccc(Cl)cc2)cc1 | 2.7 | 5.31 | 1.82 | 4.51 | 2.17 | 4.36 | 2.24 | 4.86 | 2.81 | 5.64 | 2.54 | 4.8 | 2.36 | 4.69 | 2.1 | 4.45 | 2.01 | 6.91 | 1.89 | 3.96 |
| CCOC(=O)N1CCN(C(=O)c2ccc(C(F)(F)F)nc2Nc2cc(Cl)ccc2C)CC1 | 13.9 | 89.4 | 18.9 | 51.6 | 11.6 | 30.1 | 12.3 | 30.1 | 23.7 | > 100 | 5.22 | 21.9 | 15.4 | > 100 | 11.8 | 55.1 | 7.74 | 65.7 | 7.82 | > 100 |
| Cc1cc(NC(=O)c2ccc(C)c(Nc3nccc(-c4cccnc4)n3)c2)cc(-n2cnc(C)c2)c1 | 0.0734 | 3.96 | 2.4 | 7.23 | 17.1 | > 35.6 | 0.932 | 3.28 | 2.71 | 10.1 | 1.25 | 5.45 | 7.18 | 23 | 0.999 | 2.19 | 2.46 | 11.8 | 1.97 | 5.3 |
| CN1CCc2c(Sc3ccc(C(=O)NO)cc3)c3ccccc3n2C1 | 3.04 | 12.6 | 1.92 | 4.52 | 1.77 | 3.86 | 1.7 | 3.97 | 1.81 | 4.53 | 1.75 | 4.19 | 6.81 | 51.7 | 1.92 | 8.6 | 2.69 | 9.92 | 2.33 | 14.9 |
| Cc1sc2nc(NCCc3c[nH]c4ccc(Cl)cc34)[nH]c(=O)c2c1C | 1.93 | 4.47 | 1.74 | 3.77 | 2.39 | 5.71 | 1.84 | 7.07 | 2.4 | 9.49 | 2.59 | 8.74 | 3.07 | 15.6 | 3.27 | 13.4 | 1.81 | 8.52 | 1.22 | 2.77 |
| CN(C)c1ccc2nc3ccc(=O)cc-3sc2c1 | 0.274 | > 49.1 | 0.38 | 3.81 | 0.697 | > 100 | 1.16 | 8.47 | 0.408 | 10.8 | 1.14 | > 45.4 | 0.665 | > 100 | 1.41 | 36.5 | 0.884 | > 46.5 | 0.545 | > 74.5 |
| COC(=O)[C@@H](NC(=O)[C@@H](OC)[C@@H]1Cc2cc3cc(OC4CC(OC5CC(O)C(O)C(C)O5)C(O)C(C)O4)c(C)c(O)c3c(O)c2C(=O)[C@H]1OC1CC(OC2CC(OC3CC(C)(O)C(O)C(C)O3)C(O)C(C)O2)C(O)C(C)O1)C(C)C (stereo not given in full) | 0.0956 | 3.7 | 0.137 | > 32.5 | 0.206 | > 32.5 | 0.0934 | > 32.5 | 0.147 | > 32.5 | 0.192 | 19.9 | 23.7 | > 32.5 | 0.166 | 14 | 0.0174 | 5.08 | 0.129 | 4.4 |
| O=C(CCCN1CC=C(n2c(=O)[nH]c3ccccc32)CC1)c1ccc(F)cc1 | 45.6 | > 100 | 25 | 75.5 | 48 | > 100 | 28.5 | > 100 | 23 | 65.5 | 62.8 | > 100 | 22.9 | > 100 | 30 | > 100 | 29.6 | 89.1 | 27.5 | > 100 |
| O=C(Nc1ccc(Cl)cc1F)c1cc(Br)ccc1O | 1.12 | 16.7 | 7.65 | 21.5 | 2.73 | 13.3 | 0.805 | 3.19 | 0.751 | 3.75 | 0.968 | 8.12 | 1.39 | 14.6 | 0.732 | > 100 | 0.7 | > 23 | 0.461 | 3.65 |
| Nc1ccncc1/C=C1/C(=O)Nc2ccccc21 | 43.7 | > 100 | 19.8 | > 100 | 25.3 | 59.9 | 43.9 | > 100 | 20.5 | 59.6 | 50.1 | > 100 | 35.9 | > 100 | 33.4 | > 100 | 23.2 | > 100 | 18.9 | > 100 |
